Data taken from PubChem BioAssay AID256 (DTP/NCI, 2004).
Several values for one entry are separate records, joined by “and”; a condition that tells them apart may be missing. Equal values may be shown once. Inconclusive results and toxic doses are left out. Rule for the calls: active = survival T/C of 150% or more; inactive = T/C below 125% in these data.

Tested on: CD2F1 mice, L1210 leukemia ip, survival T/C
Assay: NCI In Vivo Anticancer Drug Screen. Data for tumor model L1210 Leukemia (intraperitoneal) in CD2F1 (CDF1) mice
Settings: endpoint: mean survival time, higher = longer survival
Method in brief: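 Activity against a transplanted murine tumor was judged by comparing the compound group with a vehicle group. The outcome in the treated animals was divided by that in the controls.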

[1] = dose: 100.0 mg/kg/injection, schedule: Q01DX001 (ip), vehicle: saline
[2] = dose: 50.0 mg/kg/injection, schedule: Q01DX009 (ip), vehicle: saline with Tween-80
[3] = dose: 100.0 mg/kg/injection, schedule: Q01DX009 (ip), vehicle: saline with Tween-80
[4] = dose: 100.0 mg/kg/injection, schedule: Q04DX003 (ip), vehicle: saline with Tween-80
[5] = dose: 200.0 mg/kg/injection, schedule: Q04DX003 (ip), vehicle: saline with Tween-80
[6] = dose: 400.0 mg/kg/injection, schedule: Q04DX003 (ip), vehicle: saline with Tween-80
[7] = dose: 0.39 mg/kg/injection, schedule: Q01DX009 (ip), vehicle: saline
[8] = dose: 50.0 mg/kg/injection, schedule: Q01DX009 (ip), vehicle: saline
[9] = dose: 100.0 mg/kg/injection, schedule: Q01DX009 (ip), vehicle: saline
[10] = dose: 100.0 mg/kg/injection, schedule: Q04DX003 (ip), vehicle: saline
[11] = dose: 200.0 mg/kg/injection, schedule: Q01DX009 (ip), vehicle: saline
[12] = dose: 200.0 mg/kg/injection, schedule: Q04DX003 (ip), vehicle: saline
[13] = dose: 400.0 mg/kg/injection, schedule: Q04DX003 (ip), vehicle: saline
[14] = dose: 50.0 mg/kg/injection, schedule: Q01DX009 (ip), vehicle: Klucel (hydroxypropylcellulose) (HPC)
[15] = dose: 50.0 mg/kg/injection, schedule: Q04DX003 (ip), vehicle: saline

Measured: T/C

CC(C)N1CCC1C(=O)O (stereo unspecified)
inactive: dose: 100.0 mg/kg/injection, schedule: Q01DX009 (ip), vehicle: saline sonified 97 % of control | dose: 200.0 mg/kg/injection, schedule: Q01DX009 (ip), vehicle: saline sonified 105 % of control | dose: 400.0 mg/kg/injection, schedule: Q01DX009 (ip), vehicle: saline sonified 97 % of control

NC1=NC(c2ccccc2)N(c2ccc(Cl)cc2)C(N)=N1 (stereo unspecified)
inactive: dose: 100.0 mg/kg/injection, schedule: Q01DX001 (ip), vehicle: saline with Tween-80 93 % of control | dose: 200.0 mg/kg/injection, schedule: Q01DX001 (ip), vehicle: saline with Tween-80 95 % of control

Cc1cccc(C)c1N1C(N)=NC(N)=NC1(C)C
inactive: [1] 101 % of control | dose: 200.0 mg/kg/injection, schedule: Q01DX001 (ip), vehicle: saline 93 % of control | dose: 400.0 mg/kg/injection, schedule: Q01DX001 (ip), vehicle: saline 93 % of control

CC(C)S(=O)(=O)/C(Cl)=C(/Cl)C(Cl)=C(Cl)Cl
inactive: [2] 106 % of control

Cc1cc(N(CCCl)CCCl)ccc1C1N(Cc2ccc(N(C)C)cc2)CCCN1Cc1ccc(N(C)C)cc1
inactive: [3] 101 % of control | [4] 98 % of control | dose: 200.0 mg/kg/injection, schedule: Q01DX009 (ip), vehicle: saline with Tween-80 101 % of control | [5] 101 % of control | dose: 400.0 mg/kg/injection, schedule: Q01DX009 (ip), vehicle: saline with Tween-80 108 % of control | [6] 108 % of control

CCCCCCCCCCCCCCC[N+]1(CC)CCCCC1
inactive: dose: 0.09 mg/kg/injection, schedule: Q01DX009 (ip), vehicle: saline 102 % of control | dose: 0.19 mg/kg/injection, schedule: Q01DX009 (ip), vehicle: saline 102 % of control | [7] 115 % of control | dose: 0.78 mg/kg/injection, schedule: Q01DX009 (ip), vehicle: saline 103 % of control

C[N+](C)(C)/N=C/C=C/c1ccccc1
inactive: dose: 12.5 mg/kg/injection, schedule: Q01DX009 (ip), vehicle: saline with Tween-80 104 % of control | dose: 25.0 mg/kg/injection, schedule: Q01DX009 (ip), vehicle: saline with Tween-80 104 % of control | [2] 96 % of control and 107 % of control

CC(C)(C)CC(C)(C)c1ccc(Oc2ccc([N+](=O)[O-])cc2S(=O)(=O)O)cc1
inactive: dose: 6.25 mg/kg/injection, schedule: Q04DX002 (ip), vehicle: saline with Tween-80 96 % of control | dose: 12.5 mg/kg/injection, schedule: Q04DX002 (ip), vehicle: saline with Tween-80 114 % of control | dose: 25.0 mg/kg/injection, schedule: Q04DX002 (ip), vehicle: saline with Tween-80 87 % of control and 93 % of control

CCOc1ccc(/C=C/c2cc[n+](C)cc2)cc1OC
inactive: [1] 103 % of control

CN1C(=S)[N+](C)(C)N=C1[O-]
inactive: [8] 107 % of control | [9] 108 % of control | [10] 100 % of control | [11] 113 % of control | [12] 105 % of control | [13] 101 % of control

CC(=O)[C@]1(O)Cc2c(O)c3c(c(O)c2[C@@H](OC2CC(N)C(O)C(C)O2)C1)C(=O)c1c(O)cccc1C3=O (stereo partly specified)
inactive: dose: 0.05 mg/kg/injection, schedule: Q01DX009 (ip), vehicle: saline 118 % of control | dose: 0.08 mg/kg/injection, schedule: Q01DX009 (ip), vehicle: saline 120 % of control | dose: 0.08 mg/kg/injection, schedule: Q04DX003 (ip), vehicle: saline 107 % of control | dose: 0.14 mg/kg/injection, schedule: Q04DX003 (ip), vehicle: saline 109 % of control | dose: 0.23 mg/kg/injection, schedule: Q04DX003 (ip), vehicle: saline 123 % of control | [7] 113 % of control | dose: 0.65 mg/kg/injection, schedule: Q01DX009 (ip), vehicle: saline 88 % of control

CC(=O)OCC(C)CCC(C)C(C)C1C(C)CC2C3CC=C4CC(OC(C)=O)CCC4(C)C3CCC21C (stereo unspecified)
inactive: dose: 12.5 mg/kg/injection, schedule: Q01DX009 (ip), vehicle: Klucel (hydroxypropylcellulose) (HPC) 104 % of control | dose: 25.0 mg/kg/injection, schedule: Q01DX009 (ip), vehicle: Klucel (hydroxypropylcellulose) (HPC) 101 % of control | [14] 101 % of control

NC(CCSc1ccccc1)C(=O)O (stereo unspecified)
inactive: [10] 104 % of control | [12] 102 % of control | [13] 88 % of control

CC(=O)C1=CCC2[C@H]3CC=C4C[C@H](O)CC[C@@]4(C)C3CC[C@@]12C (stereo partly specified)
inactive: dose: 100.0 mg/kg/injection, schedule: Q04DX003 (ip), vehicle: Klucel (hydroxypropylcellulose) (HPC) 103 % of control | dose: 200.0 mg/kg/injection, schedule: Q04DX003 (ip), vehicle: Klucel (hydroxypropylcellulose) (HPC) 103 % of control | dose: 400.0 mg/kg/injection, schedule: Q04DX003 (ip), vehicle: Klucel (hydroxypropylcellulose) (HPC) 103 % of control

CCCN(CCC)C(=O)c1cccnc1
inactive: [9] 92 % of control | [11] 92 % of control | dose: 400.0 mg/kg/injection, schedule: Q01DX009 (ip), vehicle: saline 97 % of control

N#CCCCN1C(=O)c2ccccc2C1=O
inactive: [14] 99 % of control | dose: 100.0 mg/kg/injection, schedule: Q01DX009 (ip), vehicle: Klucel (hydroxypropylcellulose) (HPC) 97 % of control | dose: 200.0 mg/kg/injection, schedule: Q01DX009 (ip), vehicle: Klucel (hydroxypropylcellulose) (HPC) 99 % of control

CC1NCCOC1c1ccccc1 (stereo unspecified)
inactive: [10] 100 % of control | [12] 102 % of control

CC(C(=O)NN)C(O)C(C)(C)O (stereo unspecified)
inactive: [4] 96 % of control | [5] 96 % of control | [6] 103 % of control

CCOC(=O)N[C@H]1CCc2cc(OC)c(OC)c(OC)c2-c2ccc(SC)c(=O)cc21
inactive: dose: 0.38 mg/kg/injection, schedule: Q01DX009 (ip), vehicle: other 103 % of control | dose: 0.75 mg/kg/injection, schedule: Q01DX009 (ip), vehicle: other 108 % of control | dose: 1.5 mg/kg/injection, schedule: Q01DX009 (ip), vehicle: other 114 % of control

Cc1ccc(-n2c(O)c(C=N)c(=O)n(-c3ccc(C)cc3)c2=O)cc1
inactive: [4] 95 % of control | [5] 95 % of control | [6] 97 % of control

COC(=O)C1C(C(=O)OC)C2(C)C(=O)C1(C)C(c1ccccc1)=C2c1ccccc1 (stereo unspecified)
inactive: dose: 100.0 mg/kg/injection, schedule: Q04DX002 (ip), vehicle: saline with Tween-80 101 % of control | dose: 200.0 mg/kg/injection, schedule: Q04DX002 (ip), vehicle: saline with Tween-80 90 % of control | dose: 400.0 mg/kg/injection, schedule: Q04DX002 (ip), vehicle: saline with Tween-80 90 % of control

CN(C)S(=O)(=O)c1ccccc1C1(O)c2ccccc2-c2ccccc21
inactive: [2] 87 % of control | [3] 87 % of control | [4] 93 % of control | [5] 86 % of control

Cc1ccc(NC(=O)COc2cc(Cl)c(Cl)cc2Cl)cc1C
inactive: [4] 102 % of control | [5] 93 % of control | [6] 96 % of control

C[N+]12CCN(CC1)CC2.[Cl][Pt]([Cl])[Cl]
inactive: dose: 12.5 mg/kg/injection, schedule: Q04DX003 (ip), vehicle: saline 101 % of control | dose: 25.0 mg/kg/injection, schedule: Q04DX003 (ip), vehicle: saline 98 % of control | [15] 106 % of control | [10] 113 % of control | [12] 104 % of control

CN(C)C(=C1C=CC=C1)N(C)C
inactive: dose: 75.0 mg/kg/injection, schedule: Q01DX001 (ip), vehicle: saline 95 % of control

Nc1nc(N)c2nc(NCc3ccc(C(=O)NC(CCC(=O)O)C(=O)O)cc3)cnc2n1 (stereo unspecified)
inactive: [8] 103 % of control | [15] 97 % of control | [9] 103 % of control | [10] 96 % of control | [11] 116 % of control | [12] 96 % of control | [13] 100 % of control

S=C1SCCCS1
inactive: dose: 75.0 mg/kg/injection, schedule: Q04DX003 (ip), vehicle: Klucel (hydroxypropylcellulose) (HPC) 103 % of control | dose: 150.0 mg/kg/injection, schedule: Q04DX003 (ip), vehicle: Klucel (hydroxypropylcellulose) (HPC) 98 % of control | dose: 300.0 mg/kg/injection, schedule: Q04DX003 (ip), vehicle: Klucel (hydroxypropylcellulose) (HPC) 98 % of control

Cc1cc(C)c(COCc2cc(C)c(C)cc2C)cc1C
inactive: dose: 25.0 mg/kg/injection, schedule: Q01DX009 (ip), vehicle: water 97 % of control | dose: 50.0 mg/kg/injection, schedule: Q01DX009 (ip), vehicle: water 86 % of control | dose: 100.0 mg/kg/injection, schedule: Q01DX009 (ip), vehicle: water 92 % of control | dose: 200.0 mg/kg/injection, schedule: Q01DX009 (ip), vehicle: water 101 % of control | dose: 400.0 mg/kg/injection, schedule: Q01DX009 (ip), vehicle: water 103 % of control
